These results are taken from patent publication US9175003B2, “Substituted azoanthracene derivatives and intermediates for preparation thereof” (TransTech Pharma, LLC, priority 2009, dated 2015).

pEC50: −log10 of the molar value.

This assay addresses human GLP-1 receptor (Homo sapiens (Human), UniProt P43220). Particulars: read-out: Mean EC50; cAMP, HTRF detection, 30 min at 37° C., HEK-293 cells expressing cloned human GLP-1 receptor.

Sequence of human GLP-1 receptor (P43220 24-463): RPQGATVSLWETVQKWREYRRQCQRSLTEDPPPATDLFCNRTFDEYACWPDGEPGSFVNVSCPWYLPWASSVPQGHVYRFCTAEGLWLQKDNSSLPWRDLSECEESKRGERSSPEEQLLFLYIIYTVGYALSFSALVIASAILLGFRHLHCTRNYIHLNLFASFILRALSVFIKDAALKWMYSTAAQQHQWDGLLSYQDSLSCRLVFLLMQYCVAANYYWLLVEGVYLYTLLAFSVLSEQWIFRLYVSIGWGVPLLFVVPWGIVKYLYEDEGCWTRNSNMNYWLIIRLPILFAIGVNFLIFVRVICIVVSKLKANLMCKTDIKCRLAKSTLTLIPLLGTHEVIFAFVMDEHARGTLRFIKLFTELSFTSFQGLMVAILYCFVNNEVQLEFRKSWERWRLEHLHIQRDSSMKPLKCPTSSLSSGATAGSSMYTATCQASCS
Method: Following overnight incubation of cells, media was removed, and compounds (at concentrations ranging from 0.0001 to 100 μM) were added to monolayer cells in Iscove's modified dulbecco's medium (IMDM), 100 μM RO 20-1724 PDE inhibitor, 0.1% BSA, 2% DMSO in a final volume of 100 μL, and incubated for 30 min at 37° C. […] Alternatively, cells were harvested and combined with compounds in suspension using the buffer and protocol described above. cAMP was quantified using a homogenous time-resolved fluorescence detection system (cAMP dynamic, CIS bio International).

Regarding `Cc1nccc(Oc2ccc(C[C@H](NC(=O)[C@@H]3Cc4cc5c(cc4CN3C(=O)OCc3ccccc3)O[C@@H](c3ccc(OCc4ccc(Cl)c(Cl)c4)cc3)CO5)C(=O)O)cc2)c1C` [Example 302, (3S,8S)-8-{(S)-1-Carboxy-2-[4-(2,3-dimethyl-pyridin-4-yloxy)-phenyl]-ethylcarbamoyl}-3-[4-(3,4-dichloro-benzyloxy)-phenyl]-2,3,8,9-tetrahydro-6H-[1,4]dioxino[2,3-g]isoquinoline-7-carboxylic acid benzyl ester], the pEC50 (commonly the EC50 on a negative log10 scale, so that one unit is a factor of ten) is 6.74.

In the case of `Cc1nccc(-c2ccc(C[C@H](NC(=O)[C@@H]3Cc4cc5c(cc4CN3C(=O)c3ccccc3)O[C@@H](c3ccc(OCCC(C)(C)C)cc3)CO5)C(=O)O)cc2)c1C` [Example 303, (S)-2-({(3S,8S)-7-Benzoyl-3-[4-(3,3-dimethyl-butoxy)-phenyl]-2,3,6,7,8,9-hexahydro-[1,4]dioxino[2,3-g]isoquinoline-8-carbonyl}-amino)-3-[4-(2,3-dimethyl-pyridin-4-yl)-phenyl]-propionic acid], the negative logarithm of the EC50 (pEC50) is 6.85.

For the molecule `Cc1nccc(-c2ccc(C[C@H](NC(=O)[C@@H]3Cc4cc5c(cc4CN3C(=O)c3ccccc3)O[C@@H](c3ccc(OCC4CCCC4)cc3)CO5)C(=O)O)cc2)c1C` [Example 305, (S)-2-{[(3S,8S)-7-Benzoyl-3-(4-cyclopentylmethoxy-phenyl)-2,3,6,7,8,9-hexahydro-[1,4]dioxino[2,3-g]isoquinoline-8-carbonyl]-amino}-3-[4-(2,3-dimethyl-pyridin-4-yl)-phenyl]-propionic acid], the pEC50 is 6.70. Turning to `Cc1nccc(-c2ccc(C[C@H](NC(=O)[C@@H]3Cc4cc5c(cc4CN3C(=O)c3ccccc3)O[C@@H](c3ccc(O[C@H]4CC[C@H](C)CC4)cc3)CO5)C(=O)O)cc2)c1C` [Example 306, (S)-2-({(3S,8S)-7-Benzoyl-3-[4-(trans-4-methyl-cyclohexyloxy)-phenyl]-2,3,6,7,8,9-hexahydro-[1,4]dioxino[2,3-g]isoquinoline-8-carbonyl}-amino)-3-[4-(2,3-dimethyl-pyridin-4-yl)-phenyl]-propionic acid], the negative-log EC50 (pEC50) is 6.99. Consider `Cc1nccc(-c2ccc(C[C@H](NC(=O)[C@@H]3Cc4cc5c(cc4CN3C(=O)N3CCOCC3)O[C@@H](c3ccc(OCc4ccc(Cl)c(Cl)c4)cc3)CO5)C(=O)O)cc2)c1C` [Example 311, (S)-2-{[(3S,8S)-3-[4-(3,4-Dichloro-benzyloxy)-phenyl]-7-(morpholine-4-carbonyl)-2,3,6,7,8,9-hexahydro-[1,4]dioxino[2,3-g]isoquinoline-8-carbonyl]-amino}-3-[4-(2,3-dimethyl-pyridin-4-yl)-phenyl]-propionic acid], for which the negative-log EC50 (pEC50) was 7.13. Regarding `Cc1nccc(-c2ccc(C[C@H](NC(=O)[C@@H]3Cc4cc5c(cc4CN3C(=O)N3CCCCC3)O[C@@H](c3ccc(OCc4ccc(Cl)c(Cl)c4)cc3)CO5)C(=O)O)cc2)c1C` [Example 312, (S)-2-{[(3S,8S)-3-[4-(3,4-Dichloro-benzyloxy)-phenyl]-7-(piperidine-1-carbonyl)-2,3,6,7,8,9-hexahydro-[1,4]dioxino[2,3-g]isoquinoline-8-carbonyl]-amino}-3-[4-(2,3-dimethyl-pyridin-4-yl)-phenyl]-propionic acid], the pEC50 is 7.49.

Regarding `Cc1nccc(-c2ccc(C[C@H](NC(=O)[C@@H]3Cc4cc5c(cc4CN3C(=O)N3CCCC3)O[C@@H](c3ccc(OCc4ccc(Cl)c(Cl)c4)cc3)CO5)C(=O)O)cc2)c1C` [Example 313, (S)-2-{[(3S,8S)-3-[4-(3,4-Dichloro-benzyloxy)-phenyl]-7-(pyrrolidine-1-carbonyl)-2,3,6,7,8,9-hexahydro-[1,4]dioxino[2,3-g]isoquinoline-8-carbonyl]-amino}-3-[4-(2,3-dimethyl-pyridin-4-yl)-phenyl]-propionic acid], the negative logarithm of the EC50 (pEC50) is 7.14. Turning to `CCC(C)(C)NC(=O)N1Cc2cc3c(cc2C[C@H]1C(=O)N[C@@H](Cc1ccc(-c2ccnc(C)c2C)cc1)C(=O)O)OC[C@H](c1ccc(OCc2ccc(Cl)c(Cl)c2)cc1)O3` [Example 319, (S)-2-{[(3S,8S)-3-[4-(3,4-Dichloro-benzyloxy)-phenyl]-7-(1,1-dimethyl-propylcarbamoyl)-2,3,6,7,8,9-hexahydro-[1,4]dioxino[2,3-g]isoquinoline-8-carbonyl]-amino}-3-[4-(2,3-dimethyl-pyridin-4-yl)-phenyl]-propionic acid], the pEC50 was 6.74.

As to `Cc1nccc(-c2ccc(C[C@H](NC(=O)[C@@H]3Cc4cc5c(cc4CN3C(=O)NC3(C)CCC3)O[C@@H](c3ccc(OCc4ccc(Cl)c(Cl)c4)cc3)CO5)C(=O)O)cc2)c1C` [Example 320, (S)-2-{[(3S,8S)-3-[4-(3,4-Dichloro-benzyloxy)-phenyl]-7-(1-methyl-cyclobutylcarbamoyl)-2,3,6,7,8,9-hexahydro-[1,4]dioxino[2,3-g]isoquinoline-8-carbonyl]-amino}-3-[4-(2,3-dimethyl-pyridin-4-yl)-phenyl]-propionic acid], the negative-log EC50 (pEC50) was 7.35. With `Cc1nccc(-c2ccc(C[C@H](NC(=O)[C@@H]3Cc4cc5c(cc4CN3C(=O)NC(C)(C)c3ccccc3)O[C@@H](c3ccc(OCc4ccc(Cl)c(Cl)c4)cc3)CO5)C(=O)O)cc2)c1C` [Example 323, (S)-2-{[(3S,8S)-3-[4-(3,4-Dichloro-benzyloxy)-phenyl]-7-(1-methyl-1-phenyl-ethylcarbamoyl)-2,3,6,7,8,9-hexahydro-[1,4]dioxino[2,3-g]isoquinoline-8-carbonyl]-amino}-3-[4-(2,3-dimethyl-pyridin-4-yl)-phenyl]-propionic acid] the figure was 6.75; with `Cc1nccc(-c2ccc(C[C@H](NC(=O)[C@@H]3Cc4cc5c(cc4CN3C(=O)c3ccn(C)n3)O[C@@H](c3ccc(OCc4ccc(Cl)c(Cl)c4)cc3)CO5)C(=O)O)cc2)c1C` [Example 324, (S)-2-{[(3S,8S)-3-[4-(3,4-Dichloro-benzyloxy)-phenyl]-7-(1-methyl-1H-pyrazole-3-carbonyl)-2,3,6,7,8,9-hexahydro-[1,4]dioxino[2,3-g]isoquinoline-8-carbonyl]-amino}-3-[4-(2,3-dimethyl-pyridin-4-yl)-phenyl]-propionic acid], 6.90.

`Cc1ccc(C(=O)N2Cc3cc4c(cc3C[C@H]2C(=O)N[C@@H](Cc2ccc(-c3ccnc(C)c3C)cc2)C(=O)O)OC[C@H](c2ccc(OCc3ccc(Cl)c(Cl)c3)cc2)O4)s1` [Example 329, (S)-2-{[(3S,8S)-3-[4-(3,4-dichloro-benzyloxy)-phenyl]-7-(5-methyl-thiophene-2-carbonyl)-2,3,6,7,8,9-hexahydro-[1,4]dioxino[2,3-g]isoquinoline-8-carbonyl]-amino}-3-[4-(2,3-dimethyl-pyridin-4-yl)-phenyl]-propionic acid]: the pEC50 is 7.09.

Turning to `Cc1nccc(-c2ccc(C[C@H](NC(=O)[C@@H]3Cc4cc5c(cc4CN3C(=O)c3nc[nH]n3)O[C@@H](c3ccc(OCc4ccc(Cl)c(Cl)c4)cc3)CO5)C(=O)O)cc2)c1C` [Example 332, (S)-2-{[(3S,8S)-3-[4-(3,4-Dichloro-benzyloxy)-phenyl]-7-(1H-[1,2,4]triazole-3-carbonyl)-2,3,6,7,8,9-hexahydro-[1,4]dioxino[2,3-g]isoquinoline-8-carbonyl]-amino}-3-[4-(2,3-dimethyl-pyridin-4-yl)-phenyl]-propionic acid], the negative logarithm of the EC50 (pEC50) was 7.18.

On to `Cc1nccc(-c2ccc(C[C@H](NC(=O)[C@@H]3Cc4cc5c(cc4CN3C(=O)C3CNC(=O)N3)O[C@@H](c3ccc(OCc4ccc(Cl)c(Cl)c4)cc3)CO5)C(=O)O)cc2)c1C` (stereo partly drawn) [Example 333, (S)-2-{[(3S,8S)-3-[4-(3,4-Dichloro-benzyloxy)-phenyl]-7-(2-oxo-imidazolidine-4-carbonyl)-2,3,6,7,8,9-hexahydro-[1,4]dioxino[2,3-g]isoquinoline-8-carbonyl]-amino}-3-[4-(2,3-dimethyl-pyridin-4-yl)-phenyl]-propionic acid], for which the pEC50 was 6.71.

`Cc1nccc(Oc2ccc(C[C@H](NC(=O)[C@@H]3Cc4cc5c(cc4CN3C(=O)N[C@@H](C)c3ccccc3)O[C@@H](c3ccc(OCc4ccc(Cl)c(Cl)c4)cc3)CO5)C(=O)O)cc2)c1C` [Example 335, (S)-2-{[(3S,8S)-3-[4-(3,4-Dichloro-benzyloxy)-phenyl]-7-((S)-1-phenyl-ethylcarbamoyl)-2,3,6,7,8,9-hexahydro-[1,4]dioxino[2,3-g]isoquinoline-8-carbonyl]-amino}-3-[4-(2,3-dimethyl-pyridin-4-yloxy)-phenyl]-propionic acid]: the negative-log EC50 (pEC50) is 6.94. For the molecule `Cc1nccc(Oc2ccc(C[C@H](NC(=O)[C@@H]3Cc4cc5c(cc4CN3C(=O)N[C@H](C)c3ccc(F)cc3)O[C@@H](c3ccc(OCc4ccc(Cl)c(Cl)c4)cc3)CO5)C(=O)O)cc2)c1C` [Example 337, (S)-2-({(3S,8S)-3-[4-(3,4-Dichloro-benzyloxy)-phenyl]-7-[(R)-1-(4-fluoro-phenyl)-ethylcarbamoyl]-2,3,6,7,8,9-hexahydro-[1,4]dioxino[2,3-g]isoquinoline-8-carbonyl}-amino)-3-[4-(2,3-dimethyl-pyridin-4-yloxy)-phenyl]-propionic acid], the pEC50 was 6.84. Regarding `Cc1ccccc1NC(=O)N1Cc2cc3c(cc2C[C@H]1C(=O)N[C@@H](Cc1ccc(Oc2ccnc(C)c2C)cc1)C(=O)O)OC[C@H](c1ccc(OCc2ccc(Cl)c(Cl)c2)cc1)O3` [Example 338, (S)-2-({(3S,8S)-3-[4-(3,4-Dichloro-benzyloxy)-phenyl]-7-o-tolylcarbamoyl-2,3,6,7,8,9-hexahydro-[1,4]dioxino[2,3-g]isoquinoline-8-carbonyl}-amino)-3-[4-(2,3-dimethyl-pyridin-4-yloxy)-phenyl]-propionic acid], the pEC50 was 6.42. With `Cc1nccc(Oc2ccc(C[C@H](NC(=O)[C@@H]3Cc4cc5c(cc4CN3C(=O)NC(C)C)O[C@@H](c3ccc(OCc4ccc(Cl)c(Cl)c4)cc3)CO5)C(=O)O)cc2)c1C` [Example 342, (S)-2-({(3S,8S)-3-[4-(3,4-Dichloro-benzyloxy)-phenyl]-7-isopropylcarbamoyl-2,3,6,7,8,9-hexahydro-[1,4]dioxino[2,3-g]isoquinoline-8-carbonyl}-amino)-3-[4-(2,3-dimethyl-pyridin-4-yloxy)-phenyl]-propionic acid] the figure was 6.69.
